Drawing on patent US7560470B2, “Heterocyclyl-3-sulfonylindazoles as 5-hydroxytryptamine-6 ligands” (Wyeth, priority 2003, dated 2009), this text covers Ki and melting point for 5 molecules.

In series [1] the target is T1, human cloned 5-HT6 receptors (Homo sapiens, UniProt P50406).
T1 construct: expressed in transfected cells; host or cells: HeLa cells (membrane preparation)
The experiment in a line: 5-HT6 binding affinity, [3H]-LSD displacement on membranes of Hela cells expressing human cloned 5-HT6 receptors. As to conditions: [3H]-LSD 3.0 nM, Hela cell membranes, 120 min at room temperature; read-out: 5-HT6 Binding Ki. How it is done:
The affinity of test compounds for the serotonin 5-HT6 receptor is evaluated in the following manner. Cultured Hela cells expressing human cloned 5-HT6 receptors are harvested and centrifuged at low speed (1,000×g) for 10.0 min to remove the culture media. The harvested cells are suspended in half volume of fresh physiological phosphate buffered saline solution and recentrifuged at the same speed. This operation is repeated. The collected cells are then homogenized in ten volumes of 50 mM Tris.HCl (pH 7.4) and 0.5 mM EDTA. The homogenate is centrifuged at 40,000×g for 30.0 min and the precipitate is collected. The obtained pellet is resuspended in 10 volumes of Tris.HCl buffer and recentrifuged at the same speed. The final pellet is suspended in a small volume of Tris.HCl buffer and the tissue protein content is determined in aliquots of 10-25 μl volumes. Bovine Serum Albumin is used as the standard in the protein determination according to the method described in Lowry et al., J. Biol. Chem., 193:265 (1951). The volume of the suspended cell membranes is adjusted to give a tissue protein concentration of 1.0 mg/ml of suspension. The prepared membrane suspension (10 times concentrated) is aliquoted in 1.0 ml volumes and stored at −70° C. until used in subsequent binding experiments.
Binding experiments are performed in a 96 well microtiter plate format, in a total volume of 200 μl. […] The test compounds are added in 20.0 μl volume.
The reaction is allowed to proceed in the dark for 120 min at room temperature, at which time, the bound ligand-receptor complex is filtered off on a 96 well unifilter with a Packard Filtermate® 196 Harvester. The bound complex caught on the filter disk is allowed to air dry and the radioactivity is measured in a Packard TopCount® equipped with six photomultiplier detectors, after the addition of 40.0 μl Microscint®−20 scintillant to each shallow well. The unifilter plate is heat-sealed and counted in a PackardTopCount® with a tritium efficiency of 31.0%.
Binding in the presence of varying concentrations of test compound is expressed as a percentage of specific binding in the absence of test compound. The results are plotted as log % bound versus log concentration of test compound. Nonlinear regression analysis of data points with a computer assisted program Prisms® yields both the IC50 and the Ki values of test compounds with 95% confidence limits.
The amount of displacement by the test compound is given in percent (%) inhibition and is derived from the following equation:
[formula] where B0 is the amount of CPM bound in the presence of the testing agent. NSB represents the CPM bound in the presence of a saturating concentration of a displacer and TB represents the total amount of CPM bound at zero (0) concentration of test compound.
Alternatively, a linear regression line of data points is plotted, from which the IC50 value is determined and the Ki value is determined based upon the following equation: Ki=IC50/(1+L/KD) where L is the concentration of the radioactive ligand used and KD is the dissociation constant of the ligand for the receptor, both expressed in nM.

Structures are written as SMILES.

T1 sequence (P50406 whole entry): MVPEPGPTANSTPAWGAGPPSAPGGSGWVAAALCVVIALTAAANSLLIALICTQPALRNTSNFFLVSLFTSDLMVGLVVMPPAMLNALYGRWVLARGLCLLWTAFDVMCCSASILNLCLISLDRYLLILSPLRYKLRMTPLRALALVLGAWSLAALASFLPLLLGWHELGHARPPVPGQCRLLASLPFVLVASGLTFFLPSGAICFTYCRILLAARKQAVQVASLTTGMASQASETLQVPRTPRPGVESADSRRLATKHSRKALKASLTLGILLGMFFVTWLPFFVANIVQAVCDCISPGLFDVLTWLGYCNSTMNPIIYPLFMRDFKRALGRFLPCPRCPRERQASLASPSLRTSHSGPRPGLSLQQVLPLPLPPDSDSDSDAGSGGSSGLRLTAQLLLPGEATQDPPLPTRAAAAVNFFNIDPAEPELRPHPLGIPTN

Molecule `O=S(=O)(c1ccccc1)c1nn(-c2ccc(F)cc2)c2ccc(N3CCNCC3)cc12` [Example 37] returned a melting point of 159 to 161 °C. The Ki in series [1] stood at 4 nM.
In the case of `O=S(=O)(c1ccccc1)c1nn(-c2ccc(F)c(Cl)c2)c2ccc(N3CCNCC3)cc12` [Example 38], the melting point was greater than 200 °C. Further, in series [1], the Ki turned out to be 73 nM.
In turn, `O=S(=O)(c1ccccc1)c1nn(-c2cccc(C(F)(F)F)c2)c2ccc(N3CCNCC3)cc12` [Example 40] showed a melting point of 139 to 142 °C. Also, in series [1], the Ki stood at 62 nM.
Taken in the same sequence, the figures for `O=S(=O)(c1ccccc1)c1nn(-c2ccc(I)cc2)c2ccc(N3CCNCC3)cc12` [Example 42] were greater than 200 °C and 117 nM.
The molecule `CCn1nc(S(=O)(=O)c2ccccc2)c2cc(N3CCNCC3)ccc21` [Example 43] showed a melting point greater than 200 °C. Also, the Ki in series [1] stood at 3 nM.

In general, Ki refers to a measure of affinity in units of concentration, obtained from inhibition or displacement. In general, melting point refers to the temperature of the solid-liquid transition.
